Data as given in patent publication US7078499B2, “Nucleotide analogues comprising a reporter moiety and a polymerase enzyme blocking moiety” (GE Healthcare UK Limited, priority 2000, dated 2006).

Columns and labels:
Format in all cases: biochemical
deltaTts DNA polymerase = assay: Thermostable DNA polymerase primer extension, delta Tts; parameters: key to result of incorporation (termination / further chain extension): T: Incorporation results in termination; E: Incorporation permits further chain extension; T/E: Predominant product is primer extended by one base, but evidence of some further extension also observed; conditions: DNA template, 45° C. for 20–40 minutes; for primer extended by at least one base within assay time (grade): TTP replaced entirely by test compound
Protocol: (§1) DNA polymerase assays were performed using Sequence 1 as primer and Sequence 2 as template. • Sequence 1 5′[Cy3]TAACTCATTAACAGGATC 3′ • Sequence 2 5′AT TCGCGGTATTCTGGTATGAAGCTTTTAGATCCTGTTAATGAGTTA GTA3′
(§2) The template (Sequence 2) was designed such that the base (underlined) immediately adjacent to the 3′ end of the hybridised primer is complementary to the nucleotide test compound. Nucleotide test compounds were compounds (6) (4′-C-(glycylaminomethyl)thymidine triphosphate), (8) (4′-C-(N-trifluoroacetyaminomethyl)thymidine triphosphate) and (9) (4′-C-(aminomethyl)thymidine triphosphate) as described above.
(§3) Primer extension reactions were performed using the above primers in the presence of 40 to 80 μM of nucleotide triphosphates. Positive control reactions contained all four native nucleotide triphosphates. For the other reactions the TTP was replaced with either a 2:1 ratio of […] for the terminator control, or entirely by the test compound The enzymes were used at a final concentration of 0.175 units/μl and a magnesium ion concentration of 2.5 mM in buffers supplied by the manufacturer. The primer and template concentrations were 0.5 pmol/μl and 2 pmol/μl respectively.
(§4) Extension reactions with thermophilic enzymes were performed by initially denaturing the fully assembled reactions at 70° C. for 5 min. followed by 45° C. for 20–40 minutes. The following enzymes were used: Taq DNA polymerase (Taq); Thermosequenase (TS); Thermosequenase II (TSII); Thermosequenase E (TSE), Tfl DNA polymerase (Tfl); Tth DNA polymerase (Tth), deltaTts DNA polymerase (deltaTts), deltaTts D DNA polymerase (dettaTTSD) (all from APBiotech); Pfu DNA polymerase (Pfu) (Stratagene Ltd); Vent™ DNA polymerase (Vent) (New England Biolabs).
(§5) The reactions were stopped by adding a 0.5 volume aliquot of 80% formamide containing 0.1% (w/v) bromophenol blue and 0.1% (w/v) cresol blue. The reaction products were separated by denaturing gel electrophoresis at a constant power of 45 W on 16% polyacrylamide gels containing 50% urea.
(§6) Gels were scanned for Cy3 fluorescence on a Molecular Dynamics Fluorimager and the data analysed using Molecular Dynamics ImageQuant 5 software.
(§7) The incorporation of a test nucleotide triphosphate results in the appearance on a polyacrylamide gel of a single band corresponding to a single base extension product. If, however, the enzyme adds additional bases then further bands would be observed that corresponded to either the full-length product or positions of other complementary bases in the template.

delta Tts DNA polymerase = assay: Thermostable polymerase under reverse transcription conditions, delta Tts; parameters: key to result of incorporation (termination / further chain extension): T: Incorporation results in termination; E: Incorporation permits further chain extension; T/E: Predominant product is primer extended by one base, but evidence of some further extension also observed; key to primer extended by at least one base within assay time (grade): −: No extension within assay time; +/−: up to 25% of primer extended by at least one base within assay time; +: up to 50% of primer extended by at least one base within assay time; ++: up to 75% of primer extended by at least one base within assay time; +++: essentially all primer extended by at least one base within assay time; conditions: RNA template, 2.5 mM Manganese ions; for primer extended by at least one base within assay time (grade): Tth reaction buffer
Protocol: as §1, §2, §3, §4
(§8) Reverse transcriptase reactions were performed essentially as described above for thermophilic and mesophilic enzymes. The template for these reactions was the RNA equivalent of sequence 2. All the thermophilic enzymes were assayed in Tth reaction buffer (Cambio Ltd, Cambridge UK) containing 2.5 mM Manganese ions. The following enzymes were used: Thermosequenase (TS1); Thermosequenase II (TSII); delta Tts DNA polymerase (deltaTts); delta Tts D DNA polymerase (deltaTtsD) (all from APBiotech); Retrotherm reverse transcriptase (Retroth) (Cambio Ltd); Tth DNA polymerase (Tth) (Cambio Ltd.).
as §5, §6, §7

[1] = system: delta Tts D DNA polymerase; assay: Thermostable polymerase under reverse transcription conditions, delta TtsD; parameters: key to result of incorporation (termination / further chain extension): T: Incorporation results in termination; E: Incorporation permits further chain extension; T/E: Predominant product is primer extended by one base, but evidence of some further extension also observed; key to primer extended by at least one base within assay time (grade): −: No extension within assay time; +/−: up to 25% of primer extended by at least one base within assay time; +: up to 50% of primer extended by at least one base within assay time; ++: up to 75% of primer extended by at least one base within assay time; +++: essentially all primer extended by at least one base within assay time; conditions: RNA template, 2.5 mM Manganese ions; for primer extended by at least one base within assay time (grade): Tth reaction buffer
Protocol: as §1, §2, §3, §4, §8, §5, §6, §7

SAV RT = assay: Mesophilic reverse transcriptase reaction, SAV RT; parameters: key to result of incorporation (termination / further chain extension): T: Incorporation results in termination; E: Incorporation permits further chain extension; T/E: Predominant product is primer extended by one base, but evidence of some further extension also observed; conditions: RNA template, final enzyme concentration of 4 units/μl
Protocol: as §1, §2, §3
Extension reactions preformed with mesophilic polymerases were carried out by mixing all the components of the reaction except the enzyme and heating to 70° C. for 5 min. After the reactions had cooled to room temperature 0.175 units of the enzyme were added and the reactions heated to 37° C. for 20–40 minutes. The following enzymes were used: T7 DNA polymerase (T7); Sequenase 2™ (Seq); Klenow fragment of DNA polymerase 1 (Klen); phi-29 DNA polymerase (Phi-29); T4 DNA polymerase (T4) (all from AP Biotech) and Bst DNA polymerase (Bst) (Cambio Ltd).
as §8
Mesophilic reverse transcriptases (AMV RT; MuLV RT; SAV RT and HIV RT all from APBiotech) were assayed in their respective buffers with a final enzyme concentration of 4 units/μl.
as §5, §6, §7

| Molecule | result of incorporation (termination / further chain extension) (deltaTts DNA polymerase) | primer extended by at least one base within assay time (grade) (deltaTts DNA polymerase) | result of incorporation (termination / further chain extension) (delta Tts DNA polymerase) | primer extended by at least one base within assay time (grade) (delta Tts DNA polymerase) | result of incorporation (termination / further chain extension) [1] | primer extended by at least one base within assay time (grade) [1] | primer extended by at least one base within assay time (grade) (SAV RT) | result of incorporation (termination / further chain extension) (SAV RT) |
| --- | --- | --- | --- | --- | --- | --- | --- | --- |
| Cc1cn([C@H]2C[C@H](O)[C@@](CNC(=O)C(F)(F)F)(COP(=O)(O)OP(=O)(O)OP(=O)(O)O)O2)c(=O)[nH]c1=O [compound (8), 4′-C-(N-trifluoroacetylaminomethyl)thymidine triphosphate] | T | + (up to 50% of primer extended by at least one base within assay time) | T | +++ | E | +++ | ++ (up to 75% of primer extended by at least one base within assay time) | E |
| 4′-C-(Aminomethyl)thymidine triphosphate [compound (9)] | T | +T | T | +++ | E | +++ | ++ (up to 75% of primer extended by at least one base within assay time) | E |
| 4′-C-(Glycylaminomethyl)thymidine triphosphate [compound (6)] | T | + (up to 50% of primer extended by at least one base within assay time) | T | +++ | E | +++ | + (up to 50% of primer extended by at least one base within assay time) | E? |
